Experimental data: patent US11701382B2, “Treatment of post-operative joint pain with polysulfated polysaccharides” (PARADIGM BIOPHARMACEUTICALS LTD., priority 2018, dated 2023)

Key:
Format in all cases: in vivo, human
[1] = tested on: patient with persistent pain following total right knee arthroplasty; test: Aseptic, persistent post-operative pain in right artificial knee joint after total knee replacement, patient treated with PPS; conditions: PPS 2 mg/kg SC twice weekly for 3 weeks
Text: (§1) Example 1 is a study of the safety, tolerability and result of a patient treated with PPS suffering from degenerative osteoarthritis in the left knee with bone marrow edema lesions (BMEL), as assessed by magnetic resonance imaging (MRI), and from persistent pain following total right knee arthroplasty.
(§2) The patient had end stage osteroarthrtis (OA) in their right knee. They underwent a total knee replacement (TKR) in the right knee and had aseptic, persistent pain from that joint post replacement. They also had pain in their left knee (degenerative osteoarthritis) and was recommended to have a TKR in that joint.
(§3) They were treated with PPS. The treatment regimen consisted of administration of PPS, at a preferred dose of 2 mg/kg of body weight, twice weekly for three weeks by subcutaneous injection (total of six injections).
(§4) The protocol featured the following: • Treatment regimen: 2× weekly subcutaneous injections of PPS (preferred dose 2 mg/kg) for 3 weeks (total of 6 injections)

[2] = tested on: patient with degenerative osteoarthritis in the left knee; test: Lysholm Knee Score (knee function), left knee, patient treated with PPS; conditions: left knee (degenerative OA); PPS 2 mg/kg SC twice weekly for 3 weeks; 0-100 scale; before PPS 58
Text: as §1, §2, §3, §4
Lysholm Knee Score is a total score of 0-100 is calculated based on the results from the eight functional components of the Lysholm knee score scale: Limp (5 points), Support (5 points), Locking (15 points), Instability (25 points), Pain (25 points), Swelling (10 points), Stair climbing (10 points), and Squatting (5 points). […]

[3] = tested on: patient with degenerative osteoarthritis in the left knee with bone marrow edema lesions; test: Bone marrow edema lesions (BMEL) assessed by MRI, left knee, patient treated with PPS
Text: as §1, §2, §3, §4

[4] = tested on: patient with left knee osteoarthritis and persistent right knee pain following TKR; test: Safety and tolerability (adverse events) of PPS under TGA SAS(B); conditions: PPS 2 mg/kg SC twice weekly for 3 weeks, one patient
Description: as §1
The patient was treated with PPS under the TGA Special Access Scheme (B). (Approval to use PPS as treatment for the patient was acquired from Department of Health—Therapeutic Goods Administration, Australian Government under the Special Access Scheme (SAS) since the injectable form of PPS was not a registered product in Australia.)
as §3

[5] = tested on: patient with degenerative osteoarthritis in the left knee; test: Numerical Rating Scale (NRS) pain score, left knee with degenerative osteoarthritis, patient treated with PPS; conditions: left knee (degenerative OA); PPS 2 mg/kg SC twice weekly for 3 weeks (6 injections); 0-10 scale; before PPS 8
Text: as §1, §2, §3, §4
Numerical Rating Scale (NRS) is an 11-point scale (0-10). A state of no pain is 0 and the worst pain imaginable is 10.

Substance: Pentosan polysulfate [PPS]
- aseptic, persistent pain in the right artificial joint [1]: zero
- After PPS/Lysholm Knee Score [2]: 99
- BMEL reduction as assessed by magnetic resonance imaging ([3]; PPS 2 mg/kg SC twice weekly for 3 weeks): clearly visible BMEL reduction
- bone marrow edema stage, post-treatment MRI ([3]; after PPS, at baseline up to two thirds): negligible
- adverse events [4]: no adverse events were reported
- After PPS/NRS Pain [5]: 0
